# Reference: patent publication US11571401B2, “Compounds, compositions, kits, and methods for activating immune cells and/or an immune system response” (East Carolina University, priority 2017, dated 2023)
# What was measured:
# B16F10 melanoma cells [1] = test: Extracellular ATP release from B16F10 melanoma cells; type: cell-based, mouse
# Protocol: B16F10 melanoma cells were treated with 5 uM 15dPMJ2 (PMJ), 5uM oxaliplatin (OX), drug vehicle (VEH, DMSO 0.1%) or cells remained untreated (UT) for 4 hours. After 4 hours of drug treatment, the cell culture media from B16F10 cells was obtained to measured ATP levels.
# B16F10 cells were treated with 15dPMJ2 (PMJ), oxaliplatin (OX), or drug vehicle (VEH) in the presence or absence of the ER stress inhibitor, GSK2656157 (“inhibitor” (I)).
# tumor cells = details: background statement; see U.S. Pat. No. 9,328,060; cited from earlier work
# A431 cells = test: Cell surface CD47 expression by flow cytometry in A431 cells; type: cell-based, human; details: A431 tumor cells vs drug vehicle (0.1% DMSO); FIG. 8
# Protocol: (§1) Tumorigenic, A431, and non-tumorigenic, HaCaT keratinocyte cell lines were treated with 15dPMJ2 or drug vehicle (0.1% DMSO) and the cell surface expression of calreticulin (CRT; “eat me” signal) and CD47 (“don't eat me” signal) was detected by conducting flow cytometric analysis.
# [2] = tested on: non-tumorigenic, HaCaT keratinocyte cell line; test: Cell surface CD47 expression by flow cytometry in HaCaT keratinocytes; type: cell-based, human; details: HaCaT non-tumor keratinocytes vs drug vehicle (0.1% DMSO); FIG. 8
# Protocol: as §1
# B16F10 melanoma tumors = test: Tumor-infiltrating mature dendritic cells in B16F10 melanoma tumors in mice; type: in vivo; details: C57BL/6 mice, peri-tumor route, 5 days, 0.5 and 0.25 mg/kg (FIG. 10), compared to cisplatin-, oxaliplatin-treated and untreated animals
# Protocol: To determine if 15dPMJ2 can increase the amount of tumor-attacking immune cells in melanoma tumors, a pilot xenograft study was conducted. B16F10 melanoma cells were injected into the subcutaneous flank region of C57BL/6 mice and tumor growth was allowed until tumors were palpable. Animals were then treated by the peri-tumor route with 15dPMJ2, oxaliplatin (positive control DAMP inducer), cisplatin (negative control DAMP inducer), vehicle (PBS containing 0.1% DMSO) or animals were untreated. After 5 days of drug treatment, animals were euthanized and tumors excised for analysis of infiltrating immune cells (TILs). Tumors were dissociated to create a single cell suspension. The expression of MHC II and CD86 (dendritic cell maturation markers) was analyzed by conducting flow cytometric analysis.
# B16F10 melanoma cells [3] = test: Cell surface calreticulin (CRT) expression by flow cytometry in B16F10 melanoma cells; type: cell-based, mouse
# Protocol: DAMPs are proteins that are expressed on the surface of cancer cells (e.g., calreticulin (CRT)) or are released from cancer cells (e.g., ATP and HMGB1) after exposure to DAMP inducing agents. DAMPs signal immune cell mediated cancer death.
# B16F10 melanoma cells were treated with 5 uM 15dPMJ2 (PMJ), 5 uM oxaliplatin (OX), drug vehicle (VEH, DMSO 0.1%) or cells remained untreated (UT) for 2 hours. After 2 hours, cell surface calreticulin (CRT) expression was measured by flow cytometric analysis.
# Brefeldin A is a molecule that inhibits the movement of proteins from the ER to the golgi apparatus (inhibits ER-golgi trafficking). Proteins must move from the ER to golgi in order translocate to the cell surface.
# B 16f10 cells were treated with vehicle (V), brefeldin A (BFA), 15dPMJ2 (PMJ) or brefeldin+15dPMJ2.
# [4] = tested on: non-tumorigenic, HaCaT keratinocyte cell line; test: Cell surface CRT expression by flow cytometry in HaCaT keratinocytes; type: cell-based, human; details: HaCaT non-tumor keratinocytes vs drug vehicle (0.1% DMSO); FIG. 7
# Protocol: as §1
# [5] = tested on: immature dendritic cells isolated from the bone marrow of C57BL/6 mice; test: Dendritic cell maturation: drug-treated B16F10 cells co-cultured with immature bone marrow dendritic cells; type: cell-based, mouse; details: FIG. 9
# Protocol: B16F10 melanoma cells remained untreated (UT) or were treated with lipopolysaccharide (LPS; positive control dendritic cell activator), vehicle (VEH; 0.1% DMSO), 500 uM oxaliplatin (OXA; positive control DAMP inducer), or 5 uM 15dPMJ2 (PMJ). The drug-treated cancer cells were then co-cultured with immature dendritic cells that were isolated from the bone marrow of C57BL/6 mice (mouse strain from which the B16F10 cell line was derived). Cell surface markers for dendritic cell maturation were then detected.
# [6] = tested on: HT-29 (colon cancer) cells; test: Cell surface CRT expression by flow cytometry in HT-29 cells; type: cell-based; details: 5 μM (FIG. 6), 2 hours
# Protocol: (§2) A431 cells (NMSC) and HT-29 (colon cancer) cells were treated with 15dPMJ2, oxaliplatin (OX), drug vehicle (VEH) or cells were untreated (UT) for 2 hours. Cell surface CRT expression was then detected by flow cytometric analysis.
# A431 cells (NMSC) = test: Cell surface CRT expression by flow cytometry in A431 cells; type: cell-based, human
# Protocol: as §2, §1
compound,measurement,setting,value
"Cc1cccc(CC(=O)N2CCc3c2ccc(-c2cn(C)c4ncnc(N)c24)c3F)n1 [GSK2656157, reference compound]",extracellular ATP levels after 15dPMJ2 in presence of the ER stress inhibitor,"B16F10 melanoma cells [1]; inhibitor + 15dPMJ2 vs 15dPMJ2 alone, FIG. 3",significantly decreased extracellular ATP levels
"CCCCC/C=C/C=C1/C(=O)C=CC1C/C=C/CCCC(=O)NCCO (centres unmarked) [Formula 15dPMJ2, 15-deoxy Δ^12,14-prostagladin J2-ethanolamide]",cell death in tumor cells compared to non-tumor cells,tumor cells,preferentially causes cell death in tumor cells compared to non-tumor cells
same,cell surface expression of CD47 (don't eat me signal),A431 cells,decreased
same,ATP release (extracellular ATP in cell culture media),"B16F10 melanoma cells [1]; 5 uM, 4 hours, FIG. 2",significantly increased ATP release compared to vehicle and oxaliplatin treated cells
same,cell surface expression of CD47 (don't eat me signal),[2],increase
same,"quantity of mature dendritic cells (MHC II, CD86) that infiltrated the tumor",B16F10 melanoma tumors,increased the quantity of mature dendritic cells that infiltrated the tumor
same,cell surface calreticulin (CRT) expression,"B16F10 melanoma cells [3]; 5 uM, 2 hours, flow cytometry, FIG. 1",significantly greater than oxaliplatin
same,cell surface expression of calreticulin (CRT; eat me signal),[4],slight increase
same,expression of MHC II and CD86 (dendritic cell maturation markers),"[5]; B16F10 cells treated with 5 uM 15dPMJ2, then co-cultured with BMDCs",significantly increased the expression of MHC II and CD86
same,cell surface CRT expression (DAMP expression),[6],potent inducer of DAMP expression
same,cell surface CRT expression (DAMP expression),"A431 cells (NMSC); A431 cells, 5 μM (FIG. 5), 2 hours",potent inducer of DAMP expression
same,cell surface expression of calreticulin (CRT; eat me signal),"A431 cells (NMSC); A431 tumor cells vs drug vehicle (0.1% DMSO), FIG. 7",increased
"O=C1[O][Pt]2([NH][C@@H]3CCCC[C@H]3[NH]2)[O]C1=O [Oxaliplatin, oxaliplatin, reference compound]",dendritic cell maturation (MHC II and CD86),"[5]; B16F10 cells treated with 500 uM oxaliplatin (100 times the concentration of 15dPMJ2), then co-cultured with BMDCs, compared with 15dPMJ2",caused similar levels of dendritic cell maturation
"C[C@H]1CCC/C=C/[C@@H]2C[C@H](O)C[C@H]2[C@H](O)/C=C/C(=O)O1 [Brefeldin A, reference compound]",15dPMJ2-mediated cell surface CRT expression in presence of brefeldin A,"B16F10 melanoma cells [3]; brefeldin + 15dPMJ2, FIG. 4",inhibited 15dPMJ2-mediated cell surface CRT expression
